Data from patent US20200131132A1, “FARNESOID X RECEPTOR AGONISTS AND USES THEREOF” (Metacrine, Inc., priority 2017, published 2020).

Target: T1, hFXR (Homo sapiens, UniProt Q96RI1)
T1 construct: expressed in transfected cells; host or cells: CV-1 cells
T1 sequence (Q96RI1 1-486): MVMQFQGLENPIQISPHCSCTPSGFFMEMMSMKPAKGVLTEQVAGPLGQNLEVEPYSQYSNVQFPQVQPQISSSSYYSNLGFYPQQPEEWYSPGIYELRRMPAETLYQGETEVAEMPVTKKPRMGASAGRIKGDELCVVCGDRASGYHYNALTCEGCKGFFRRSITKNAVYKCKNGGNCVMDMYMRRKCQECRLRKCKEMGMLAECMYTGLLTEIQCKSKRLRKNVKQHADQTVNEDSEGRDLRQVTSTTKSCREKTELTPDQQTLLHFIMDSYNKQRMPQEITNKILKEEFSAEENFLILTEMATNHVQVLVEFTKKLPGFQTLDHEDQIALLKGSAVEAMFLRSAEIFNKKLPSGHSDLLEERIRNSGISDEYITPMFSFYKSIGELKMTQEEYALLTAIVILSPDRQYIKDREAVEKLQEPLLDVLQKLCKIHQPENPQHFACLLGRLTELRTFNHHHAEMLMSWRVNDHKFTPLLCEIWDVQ
T1 sequence (P19793 1-462 partner): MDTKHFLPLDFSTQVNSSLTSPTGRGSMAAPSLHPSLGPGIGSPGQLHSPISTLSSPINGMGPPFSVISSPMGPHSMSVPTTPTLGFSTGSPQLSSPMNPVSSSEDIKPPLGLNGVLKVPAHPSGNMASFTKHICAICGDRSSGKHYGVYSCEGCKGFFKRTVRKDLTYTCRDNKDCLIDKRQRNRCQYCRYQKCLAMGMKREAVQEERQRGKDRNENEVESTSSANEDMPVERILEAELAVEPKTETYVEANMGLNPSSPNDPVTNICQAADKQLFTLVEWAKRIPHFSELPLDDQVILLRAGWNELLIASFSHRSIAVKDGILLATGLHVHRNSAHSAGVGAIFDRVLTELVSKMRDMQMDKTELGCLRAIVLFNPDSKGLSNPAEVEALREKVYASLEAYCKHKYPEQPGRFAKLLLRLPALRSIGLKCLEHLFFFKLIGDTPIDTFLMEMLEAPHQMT
Assay: In Vitro FXR Assay (TK)
Type: cell-based
Conditions: CV-1 cells transfected with hFXR, hRXR, TK-ECRE-luc and pCMX-YFP; compounds incubated 18 hrs; luminescence
How it was run: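 CV-1, transient co-transfection: hFXR + hRXR + TK-ECRE-luc + pCMX-YFP; charcoal-stripped serum. 18 h post-transfection, DMSO serial dilutions of cpd added; 18 h incubation; lysis, luminescence.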

Row | EC50 | SMILES
1 | ≤ 1 µM | COc1ccc(-c2ccc(CN(C(=O)CC(C)(C)C)c3nccc4cc(N5CCCCC5)ccc34)cc2)cc1C [Compound 6.07, N-((4′-Methoxy-3′-methyl-[1,1′-biphenyl]-4-yl)methyl)-3,3-dimethyl-N-(6-(piperidin-1-yl)isoquinolin-1-yl)butanamide]
2 | > 10 µM | COc1ccc(-c2ccc(CN(C(=O)CC(C)(C)C)c3nccc4cc(OC5CCN(C(=O)OC(C)(C)C)CC5)ccc34)cc2)cc1C [Compound 8.05, tert-Butyl 4-((1-(N-((4′-methoxy-3′-methyl-[1,1′-biphenyl]-4-yl)methyl)-3,3-dimethylbutanamido)isoquinolin-6-yl)oxy)piperidine-1-carboxylate]
3 | 1 to 10 µM | COc1cccc(-c2ccc3c(N(Cc4ccc(-c5ccc(OC)c(C)c5)cc4)C(=O)CC(C)(C)C)nccc3c2)n1 [Compound 15.01, N-((4′-Methoxy-3′-methyl-[1,1′-biphenyl]-4-yl)methyl)-N-(6-(6-methoxypyridin-2-yl)isoquinolin-1-yl)-3,3-dimethylbutanamide]
